In article PMC9953315, “Cytochrome P450 Surface Domains Prevent the β-Carotene Monohydroxylase CYP97H1 of Euglena gracilis from Acting as a Dihydroxylase” (Biomolecules, 2023):

Key:
Test in all cases: in vivo carotenoid production in E. coli, HPLC-DAD and LC-MS
Type in all cases: cell-based
[1] = biological target: T1, tCYP97H1 (Euglena gracilis, UniProt A0A1Y1C5R9, F246A); conditions: beta-carotene producing E. coli, S. oleracea ferredoxin / ferredoxin reductase co-expressed; product beta-cryptoxanthin
T1 construct: gene CYP97H1; plastid signal M1-L116 deleted; E. coli codon optimised; expressed in beta-carotene producing E. coli with Spinacia oleracea ferredoxin / ferredoxin reductase
T1 sequence (A0A1Y1C5R9 entry or part of it F246A): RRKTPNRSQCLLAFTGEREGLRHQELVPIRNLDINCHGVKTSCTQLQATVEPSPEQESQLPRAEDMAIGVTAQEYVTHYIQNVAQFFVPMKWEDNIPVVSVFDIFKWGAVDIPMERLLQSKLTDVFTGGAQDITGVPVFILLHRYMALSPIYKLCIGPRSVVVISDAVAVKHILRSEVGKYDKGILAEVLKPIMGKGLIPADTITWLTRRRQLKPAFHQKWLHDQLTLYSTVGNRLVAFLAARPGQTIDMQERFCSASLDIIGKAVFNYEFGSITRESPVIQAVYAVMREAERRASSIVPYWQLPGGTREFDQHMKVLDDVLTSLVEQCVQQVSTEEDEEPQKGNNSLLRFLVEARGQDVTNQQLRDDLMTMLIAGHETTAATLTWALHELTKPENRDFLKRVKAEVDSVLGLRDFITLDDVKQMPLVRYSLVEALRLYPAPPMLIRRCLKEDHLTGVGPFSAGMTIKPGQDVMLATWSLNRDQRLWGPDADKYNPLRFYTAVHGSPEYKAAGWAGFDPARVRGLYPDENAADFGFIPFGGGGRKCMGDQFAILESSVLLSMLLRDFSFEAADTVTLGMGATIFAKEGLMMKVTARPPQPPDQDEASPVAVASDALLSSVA

[2] = biological target: T2, tCYP97H1 (Euglena gracilis, UniProt A0A1Y1C5R9, F242A); conditions: beta-carotene producing E. coli, S. oleracea ferredoxin / ferredoxin reductase co-expressed; product beta-cryptoxanthin
T2 construct: gene CYP97H1; plastid signal M1-L116 deleted; E. coli codon optimised; expressed in beta-carotene producing E. coli with Spinacia oleracea ferredoxin / ferredoxin reductase
T2 sequence (A0A1Y1C5R9 entry or part of it F242A): as the sequence (A0A1Y1C5R9 entry or part of it F246A) above, with F126A, A130F counted along it

[3] = biological target: T3, tCYP97H1 (Euglena gracilis, UniProt A0A1Y1C5R9, F221A); conditions: beta-carotene producing E. coli, S. oleracea ferredoxin / ferredoxin reductase co-expressed; product beta-cryptoxanthin
T3 construct: gene CYP97H1; plastid signal M1-L116 deleted; E. coli codon optimised; expressed in beta-carotene producing E. coli with Spinacia oleracea ferredoxin / ferredoxin reductase
T3 sequence (A0A1Y1C5R9 entry or part of it F221A): as the sequence (A0A1Y1C5R9 entry or part of it F246A) above, with F105A, A130F counted along it

[4] = biological target: T4, tCYP97A3At (Arabidopsis thaliana, UniProt Q93VK5); conditions: beta-carotene producing E. coli, S. oleracea ferredoxin / ferredoxin reductase co-expressed, product beta-cryptoxanthin
T4 construct: gene CYP97A3; first 77 residues deleted, no MBP tag; expressed in beta-carotene producing E. coli with Spinacia oleracea ferredoxin / ferredoxin reductase
T4 sequence (Q93VK5 78-595): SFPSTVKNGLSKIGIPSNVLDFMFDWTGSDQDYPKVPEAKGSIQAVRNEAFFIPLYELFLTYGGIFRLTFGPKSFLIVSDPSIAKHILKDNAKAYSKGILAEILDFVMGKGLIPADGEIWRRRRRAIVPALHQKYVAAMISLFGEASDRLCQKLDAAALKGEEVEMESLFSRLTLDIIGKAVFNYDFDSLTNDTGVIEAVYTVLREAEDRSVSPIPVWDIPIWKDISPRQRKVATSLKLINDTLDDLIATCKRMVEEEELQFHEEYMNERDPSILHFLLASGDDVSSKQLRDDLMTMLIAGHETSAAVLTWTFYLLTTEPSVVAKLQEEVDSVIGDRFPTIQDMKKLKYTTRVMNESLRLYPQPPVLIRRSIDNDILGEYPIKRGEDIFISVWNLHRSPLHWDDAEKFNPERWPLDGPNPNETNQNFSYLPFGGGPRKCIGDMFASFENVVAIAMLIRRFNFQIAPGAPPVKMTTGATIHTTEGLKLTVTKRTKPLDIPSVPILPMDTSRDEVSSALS

[5] = biological target: T5, tCYP97H1 (Euglena gracilis, UniProt A0A1Y1C5R9); conditions: beta-carotene producing E. coli, S. oleracea ferredoxin / ferredoxin reductase co-expressed, product beta-cryptoxanthin
T5 construct: gene CYP97H1; plastid signal M1-L116 deleted; E. coli codon optimised; expressed in beta-carotene producing E. coli with Spinacia oleracea ferredoxin / ferredoxin reductase
T5 sequence (A0A1Y1C5R9 entry or part of it): as the sequence (A0A1Y1C5R9 entry or part of it F246A) above, with A130F counted along it

[6] = biological target: T6, tCYP97H1 (Euglena gracilis, UniProt A0A1Y1C5R9, F218A); conditions: beta-carotene producing E. coli, S. oleracea ferredoxin / ferredoxin reductase co-expressed, product beta-cryptoxanthin
T6 construct: gene CYP97H1; plastid signal M1-L116 deleted; E. coli codon optimised; expressed in beta-carotene producing E. coli with Spinacia oleracea ferredoxin / ferredoxin reductase
T6 sequence (A0A1Y1C5R9 entry or part of it F218A): as the sequence (A0A1Y1C5R9 entry or part of it F246A) above, with F102A, A130F counted along it

[7] = beta-cryptoxanthin formed in situ, side product zeaxanthin

Structure (SMILES) | in vivo carotenoid production in E. coli, HPLC-DAD and LC-MS [1] | in vivo carotenoid production in E. coli, HPLC-DAD and LC-MS [2] | in vivo carotenoid production in E. coli, HPLC-DAD and LC-MS [3] | in vivo carotenoid production in E. coli, HPLC-DAD and LC-MS [4] | in vivo carotenoid production in E. coli, HPLC-DAD and LC-MS [5] | in vivo carotenoid production in E. coli, HPLC-DAD and LC-MS [6] | in vivo carotenoid production in E. coli, HPLC-DAD and LC-MS ([4]; beta-cryptoxanthin formed in situ, product zeaxanthin) | in vivo carotenoid production in E. coli, HPLC-DAD and LC-MS [5, 7] | in vivo carotenoid production in E. coli, HPLC-DAD and LC-MS [6, 7]
CC1=C(/C=C/C(C)=C/C=C/C(C)=C/C=C/C=C(C)/C=C/C=C(C)/C=C/C2=C(C)CCCC2(C)C)C(C)(C)CCC1 [β-carotene] | All these single mutants exhibited reduced β-cryptoxanthin production | All these single mutants exhibited reduced β-cryptoxanthin production | All these single mutants exhibited reduced β-cryptoxanthin production | production of a small amount of hydroxylated β-carotene in vivo | the deletion of the plastid peptide signal from residue M1 to L116 improved activity | All these single mutants exhibited reduced β-cryptoxanthin production |  |  | 
CC1=C(/C=C/C(C)=C/C=C/C(C)=C/C=C/C=C(C)/C=C/C=C(C)/C=C/C2=C(C)C[C@@H](O)CC2(C)C)C(C)(C)CCC1 [β-cryptoxanthin] |  |  |  |  |  |  | β-cryptoxanthin and zeaxanthin detection were confirmed by mass spectrometry in the strain ETL154, expressing CYP97A3 | A small side production of zeaxanthin was detected with CYP97H1 and the F105A mutant | the zeaxanthin:β-cryptoxanthin ratio was displaced in favour of zeaxanthin
